The values that follow come from patent US20070054916A1, “Aryl nitrogen-containing bicyclic compounds and methods of use” (Amgen Inc., priority 2004, published 2007).

SMILES strings stand for the structures.

This assay has as its system production of TNF by monocytes activated with bacterial lipopolysaccharide (LPS). Put plainly: Lipopolysaccharide-activated monocyte TNF production assay. Type of assay: cell-based. As to conditions: Homo sapiens, read-out: IC50 values in the monocyte assay (LPS induced TNF release). The procedure:
Lipopolysaccharide-Activated Monocyte TNF Production Assay
Test compounds were evaluated in vitro for the ability to inhibit the production of TNF by monocytes activated with bacterial lipopolysaccharide (LPS). Fresh residual source leukocytes (a byproduct of plateletpheresis) were obtained from a local blood bank, and peripheral blood mononuclear cells (PBMCs) were isolated by density gradient centrifugation on Ficol-Paque Plus (Pharmacia). PBMCs were suspended at 2×10^6/ml in DMEM supplemented to contain 2% FCS, 10 mM, 0.3 mg/ml […], 100 U/ml penicillin G and […] streptomycin sulfate (complete media). Cells were plated into Falcon flat bottom, 96 well culture plates (200 μl/well) and cultured overnight at 37° C. and 6% CO2. Non-adherent cells were removed by washing with 200 μl/well of fresh medium. Wells containing adherent cells (˜70% monocytes) were replenished with 100 μl of fresh medium.
Preparation of Test Compound Stock Solutions
Test compounds were dissolved in […]. Compound stock solutions were prepared to an initial concentration of […]. Stocks were diluted initially to 20-200 μM in complete media. Nine two-fold serial dilutions of each compound were then prepared in complete medium.
Treatment of Cells with Test Compounds and Activation of TNF Production with Lipopolysaccharide
One hundred microliters of each test compound dilution were added to microtiter wells containing adherent monocytes and 100 μl complete medium. Monocytes were cultured with test compounds for 60 min at which time 25 μl of complete medium containing 30 ng/ml lipopolysaccharide from E. coli K532 were added to each well. Cells were cultured an additional 4 hrs. Culture supernatants were then removed and TNF presence in the supernatants was quantified using an ELISA.
Flat bottom, 96 well Corning High Binding ELISA plates were coated overnight (4° C.) with 150 μL/well of 3 μg/ml murine anti-human TNF-α MAb (R&D Systems #MAB210). Wells were then blocked for 1 hr at room temperature with 200 μL/well of CaCl2-free ELISA buffer supplemented to contain 20 mg/ml BSA (standard ELISA buffer: […], 150 mM NaCl, 2 mM CaCl2, 0.15 mM thimerosal, pH 7.4). Plates were washed and replenished with 100 μl of test supernatants (diluted 1:3) or standards. Standards consisted of eleven 1.5-fold serial dilutions from a stock of 1 ng/ml recombinant human TNF (R&D Systems). Plates were incubated at room temperature for 1 hr on orbital shaker (300 rpm), washed and replenished with 100 μl/well of 0.5 ug/ml goat anti-human TNF-α (R&D systems #AB-210-NA) biotinylated at a 4:1 ratio. Plates were incubated for 40 min, washed and replenished with 100 μl/well of alkaline phosphatase-conjugated streptavidin (Jackson ImmunoResearch #016-050-084) at 0.02 ug/ml. Plates were incubated 30 min, washed and replenished with 200 μl/well of 1 mg/ml of p-nitrophenyl phosphate. After 30 min, plates were read at 405 nm on a Vmax plate reader.
Standard curve data were fit to a second order polynomial and unknown TNF-α concentrations determined from their OD by solving this equation for concentration. TNF concentrations were then plotted vs. test compound concentration using a second order polynomial. This equation was then used to calculate the concentration of test compounds causing a 50% reduction in TNF production.
Turning to `CNc1ncc2cc(-c3cccc(NC(=O)c4cc(C(F)(F)F)ccc4F)c3C)cnc2n1` [Example 223, 2-fluoro-N-(2-methyl-3-(2-(methylamino)pyrido[2,3-d]pyrimidin-6-yl)phenyl)-5-(trifluoromethyl) benzamide], the 50% inhibitory concentration (IC50) (usually the concentration that gives 50% inhibition) is at most 25 µM.
Consider `CNc1ncc2cc(-c3cc(C(=O)Nc4cccc(C(F)(F)F)c4C)ccc3C)ccc2n1` [Example 11, 4-methyl-3-(2-(methylamino)-6-quinazolinyl)-N-(2-methyl-3-(trifluoromethyl)phenyl)benzamide], for which the IC50 was at most 25 µM.
On to `Cc1ccc(C(=O)Nc2ccc(C#N)c(C(F)(F)F)c2)cc1-c1ccc2nc(N)ncc2c1` [Example 125, 3-(2-amino-6-quinazolinyl)-N-(4-cyano-3-(trifluoromethyl)phenyl)-4-methylbenzamide], for which the 50% inhibitory concentration (IC50) is at most 25 µM.
For the molecule `Cc1ccc(C(=O)Nc2cc(C(F)(F)F)ccc2N2CCCC2)cc1-c1ccc2nc(N)ncc2c1` [Example 80, 3-(2-amino-6-quinazolinyl)-4-methyl-N-(2-(1-pyrrolidinyl)-5-(trifluoromethyl)phenyl)benzamide], the IC50 is at most 25 µM.
`CNc1ncc2cc(-c3cc(C(=O)Nc4cccc(C(F)(F)F)c4)c(F)cc3C)ccc2n1` [Example 38, 2-fluoro-4-methyl-5-(2-(methylamino)-6-quinazolinyl)-N-(3-(trifluoromethyl)phenyl)benzamide]: the IC50 was at most 25 µM.
As to `Cc1ccc(C(=O)Nc2ccc(C(F)(F)F)cn2)cc1-c1ccc2nc(N)ncc2c1` [Example 360, 3-(2-amino-6-quinazolinyl)-4-methyl-N-(5-(trifluoromethyl)-2-pyridinyl)benzamide], the IC50 was at most 25 µM.
Turning to `Cc1cc(F)c(C(=O)Nc2cccc(C(F)(F)F)c2)cc1-c1ccc2nc(N)ncc2c1` [Example 126, 5-(2-amino-6-quinazolinyl)-2-fluoro-4-methyl-N-(3-(trifluoromethyl)phenyl)benzamide], the half-inhibitory concentration (IC50) is at most 25 µM.
On to `CNc1ncc2cc(-c3cc(C(=O)Nc4cc(C(=O)NCCN5CCOCC5)cc(C(F)(F)F)c4)ccc3C)cnc2n1` [Example 189, 4-methyl-3-(2-(methylamino)pyrido [2,3-d]pyrimidin-6-yl)-N-(3-(((2-(4-morpholinyl)ethyl)amino)carbonyl)-5-(trifluoromethyl)phenyl)benzamide], for which the IC50 was at most 25 µM.
With `COc1cccc(NC(=O)c2ccc(C)c(-c3ccc4nc(N)ncc4c3)c2)c1OC` [Example 283, 3-(2-amino-6-quinazolinyl)-N-(5,6-bis(methyloxy)-phenyl)-4-methylbenzamide], the concentration for half-maximal inhibition (IC50) was at most 25 µM.
In the case of `Cc1ccc(C(=O)Nc2ccc(OC3CCN(C)CC3)c(C(F)(F)F)c2)cc1-c1ccc2nc(N)ncc2c1` [Example 123, 3-(2-amino-6-quinazolinyl)-4-methyl-N-(4-((1-methyl-4-piperidinyl)oxy)-3-(trifluoromethyl)phenyl)benzamide], the half-inhibitory concentration (IC50) was at most 25 µM.
`Cc1ccc(C(=O)Nc2ccc(C(F)(F)F)cc2)cc1-c1ccc2nc(N(C)C)ncc2c1` [Example 319, 3-(2-(dimethylamino)-6-quinazolinyl)-4-methyl-N-(4-(trifluoromethyl)phenyl)benzamide]: the IC50 is at most 25 µM.
For `Cc1ccc(NC(=O)c2cc(C(F)(F)F)ccc2N(C)CCCN(C)C)cc1-c1ccc2nc(N)ncc2c1` [Example 431, N-(3-(2-amino-6-quinazolinyl)-4-methylphenyl)-2-((3-(dimethylamino)propyl)(methyl)amino)-5-(trifluoromethyl)benzamide], the IC50 was at most 25 µM.
Turning to `Cc1ccc(C(=O)Nc2cccc(C(F)(F)F)c2C)cc1-c1ccc2nc(NC3CC3)ncc2c1` [Example 37, 3-(2-(cyclopropylamino)-6-quinazolinyl)-4-methyl-N-(2-methyl-3-(trifluoromethyl)phenyl)benzamide], the IC50 was at most 25 µM.
On to `Cc1cccc(C)c1-c1ccc2nc(N)ncc2c1` [Example 535, 6-(2,6-dimethylphenyl)-2-quinazolinamine], for which the half-inhibitory concentration (IC50) was at most 25 µM.
For the molecule `CN(C)CCCN(C)c1ccc(C(F)(F)F)cc1NC(=O)c1cc(-c2ccc3nc(N)ncc3c2)ccc1F` [Example 84, 5-(2-amino-6-quinazolinyl)-N-(2-((3-(dimethylamino)propyl)(methyl)amino)-5-(trifluoromethyl)phenyl)-2-fluorobenzamide], the half-inhibitory concentration (IC50) is at most 25 µM.
`Cc1ccc(C(=O)Nc2cc(C(F)(F)F)ccc2N(C)C)cc1-c1ccc2nc(N)ncc2c1` [Example 81, 3-(2-amino-6-quinazolinyl)-N-(2-(dimethylamino)-5-(trifluoromethyl)phenyl)-4-methylbenzamide]: the IC50 is at most 25 µM.
`Cc1ccc(C(=O)Nc2cc(C(F)(F)F)ccc2C(F)(F)F)cc1-c1ccc2nc(N)ncc2c1` [Example 77, 3-(2-amino-6-quinazolinyl)-N-(2,5-bis(trifluoromethyl)phenyl)-4-methylbenzamide]: the half-maximal inhibitory concentration (IC50) is at most 25 µM.
On to `Cc1ccc(C(F)(F)F)cc1NC(=O)c1ccc(C)c(-c2ccc3nc(N)ncc3c2)c1` [Example 365, 3-(2-amino-6-quinazolinyl)-4-methyl-N-(2-methyl-5-(trifluoromethyl)phenyl)benzamide], for which the concentration for half-maximal inhibition (IC50) was at most 25 µM.
As to `Nc1ncc2cc(-c3cc(C(=O)Nc4cccc(C(F)(F)F)c4)ccc3F)ccc2n1` [Example 137, 3-(2-amino-6-quinazolinyl)-4-fluoro-N-(3 (trifluoromethyl)phenyl)benzamide], the half-inhibitory concentration (IC50) was at most 25 µM.
`Cc1ccc(C(=O)Nc2nnc(C(F)(F)F)s2)cc1-c1ccc2nc(N)ncc2c1` [Example 343, 3-(2-amino-6-quinazolinyl)-4-methyl-N-(5-(trifluoromethyl)-1,3,4-thiadiazol-2-yl)benzamide]: the IC50 is at most 25 µM.
`Cc1ccc(C(=O)Nc2nc(C(C)(C)C)cs2)cc1-c1ccc2nc(N)ncc2c1` [Example 352, 3-(2-amino-6-quinazolinyl)-N-(4-(1,1-dimethylethyl)-1,3-thiazol-2-yl)-4-methylbenzamide]: the IC50 is at most 25 µM.
On to `COc1ccc(Cl)cc1NC(=O)c1ccc(C)c(-c2ccc3nc(N)ncc3c2)c1` [Example 143, 3-(2-amino-6-quinazolinyl)-N-(5-chloro-2-(methyloxy)phenyl)-4-methylbenzamide], for which the IC50 was at most 25 µM.
As for `CC(C)(C)c1ccc(C(=O)Nc2cc(-c3ccc4nc(N)ncc4c3)ccc2F)cc1` [Example 488, N-(5-(2-amino-6-quinazolinyl)-2-fluorophenyl)-4-(1,1-dimethylethyl)benzamide], the figure is at most 25 µM.
The figure for `Cc1ccc(C(=O)Nc2nc3cc(Cl)ccc3o2)cc1-c1ccc2nc(N)ncc2c1` [Example 342, 3-(2-amino-6-quinazolinyl)-N-(5-chloro-1,3-benzoxazol-2-yl)-4-methylbenzamide] is at most 25 µM; for `Cc1ccc(NC(=O)Nc2cccc(C(F)(F)F)c2)cc1-c1ccc2nc(N)ncc2c1` [Example 524, N-(3-(2-amino-6-quinazolinyl)-4-methylphenyl)-N′-(3-(trifluoromethyl)phenyl)urea] it is at most 25 µM; for `Cc1ccc(C(=O)NCc2ccccn2)cc1-c1ccc2nc(N)ncc2c1` [Example 426, 3-(2-amino-6-quinazolinyl)-4-methyl-N-(2-pyridinylmethyl) benzamide] it is at most 25 µM.
As for `Cc1ccc(C(=O)Nc2ccc(OCCCN(C)C)cc2)cc1-c1ccc2nc(N)ncc2c1` [Example 69, 3-(2-amino-6-quinazolinyl)-N-(4-((3-(dimethylamino)propyl)oxy)phenyl)-4-methylbenzamide], the figure is at most 25 µM; as for `Cc1ccc(C(=O)Nc2cc(C(F)(F)F)ccc2N2CCS(=O)(=O)CC2)cc1-c1ccc2nc(N)ncc2c1` [Example 228, 3-(2-amino-6-quinazolinyl)-N-(2-(1,1-dioxido-4-thiomorpholinyl)-5-(trifluoromethyl)phenyl)-4-methylbenzamide], at most 25 µM.
